Data from US20150335691A1, “PLANT EXTRACT OBTAINED FROM KIELMEYERA AUREOVINOSA WHICH HAS ANTIBIOTIC ACTIVITY, ISOLATED CHEMICAL COMPOUND, COMPOSITIONS COMPRISING SAME, USES THEREOF AND METHODS FOR PREVENTING AND TREATING BACTERIAL INFECTIONS” (EXTRACTA MOLÉCULAS NATURAIS S/A, priority 2011, published 2015).
Converted amounts (≈) assume the structure as drawn. Values belong to the molecule of their own block, whether it stands above or below them.

Key:
[1] = tested on: Staphylococcus aureus; assay: MIC by broth microdilution against Staphylococcus aureus; format: cell-based; conditions: read-out: minimum inhibitory concentration (MIC)
[2] = tested on: clinical isolates of Staphylococcus aureus; conditions: pure molecule; literature value; cited from earlier work
[3] = tested on: strain ATCC 33591 of MRSA; assay: MIC by broth microdilution against MRSA; conditions: MRSA ATCC 33591, 36° C. 48 h, Resazurin

MIC [1]: ≤ 1 µg/mL
Structure (SMILES): CC(C)C(=O)c1c2c(c3oc(=O)cc(-c4ccc(O)cc4)c3c1O)CC(C)(C)C=C2 [amarilin]

Structure (SMILES): C/C(=C\C(=O)OCCCCCCCCC(=O)O)C[C@@H]1OC[C@H](C[C@@H]2O[C@H]2[C@@H](C)[C@H](C)O)[C@@H](O)[C@H]1O [mupirocin]
MIC value [2]: ~0.5 µg/mL (≈ 0.999 µM)

Structure (SMILES): Cl.O=C(O)c1cn(C2CC2)c2cc(N3CCNCC3)c(F)cc2c1=O [hydrochloride ciprofloxacin]
minimum inhibitory concentration (MIC) [3]: 1 µg/mL
